Experimental findings from ChEMBL document CHEMBL2331263, “Non-benzimidazole containing inhibitors of respiratory syncytial virus” (Bioorg Med Chem Lett, 2013) are described below.

pIC50: −log10 of the molar value.

Data set [1] in a line: Octanol-neutral buffer partition co-efficient, log D of the compound at pH 7.4.
Data set [2] in a line: Apparent permeability in dog RRCK cells. The conditions noted are these: MDCK.
The nature of data set [3]: Apparent intrinsic clearance in human liver microsomes. A general note: Microsomes from liver hold many membrane-bound enzymes, among them those of drug oxidation.
Data set [4] has as its system Respiratory syncytial virus. Description: Antiviral activity against Respiratory syncytial virus A2 infected in A549 cells after 3 days by CelltitreGlo assay. Format: functional, organism-based. The conditions noted are these: human respiratory syncytial virus, A2, A549, 72 h.
A short description of data set [5]: Apparent permeability in MDCK cells selected for low expression of efflux transporters. The conditions noted are these: dog.
Data set [6] can be described thus: Apparent intrinsic clearance in rat liver microsomes. The conditions noted are these: read-out: CLH(app). It counts as ADME, Microsome.
A short description of data set [7]: Intrinsic clearance in rat plasma.
Data set [8] deals with Hepatocyte. The data set can be described thus: Apparent intrinsic clearance in human hepatocytes assessed per million cells.
For data set [9], the system named is Liver microsomes. Description: Apparent intrinsic clearance in rat liver microsomes assessed per mg protein.
Data set [10] is described as follows: Oral absorption in rat. Format: ADME, organism-based. The conditions noted are these: in vivo.
A short description of data set [11]: Drug excretion in rat urine. The settings on record: read-out: Drug excretion. Format: ADME.
Data set [12] can be described thus: Half life in iv dosed rat. The conditions noted are these: in vivo.
Data set [13] can be described thus: Volume of distribution in steady state in rat. The settings on record: in vivo.
Data set [14] is described as follows: Oral bioavailability in rat. The settings on record: in vivo.

What is called logD is lipophilicity at a set pH, counting ionised and neutral species. As usually defined, the Papp is a coefficient for how fast a substance crosses the barrier. For orientation: pIC50 means the negative decadic logarithm of the IC50, by convention in mol/L. In turn, `COCc1cn(CCCCO)c(Cn2c(=O)n(C3CC3)c3ccncc32)n1` displayed a logD in data set [1] of 0.2. Besides, the apparent permeability (Papp) in data set [2] amounted to 10 nm/s. Also, the microsomal CLint in [3] came out at 9 µL/min/mg. The pIC50 in [4] is 5.22.
The compound `O=c1n(Cc2nc3c(n2CCCCO)CCCC3)c2cnccc2n1C1CC1` showed a logD in data set [1] of 1.8. In addition, the apparent permeability (Papp) in data set [2] worked out at 40 nm/s. In addition, in [3], the microsomal CLint worked out at 65 µL/min/mg. Moreover, the negative-log IC50 (pIC50) in data set [4] was 8.40.
`O=c1n(Cc2nc(Cl)c(Cl)n2CCCCO)c2cnccc2n1C1CC1`: the logD in [1] was found to be 2. For the same compound, the microsomal CLint in data set [3] was less than 8 µL/min/mg. The compound also showed a pIC50 in data set [4] of 6.96.
Regarding `COC(=O)c1nc(Cn2c(=O)n(C3CC3)c3ccncc32)n(CCCCO)c1C`, in data set [1], the logD was found to be 0.8. In addition, the apparent permeability (Papp) in [2] worked out at 20 nm/s. Further, in data set [3], the microsomal CLint was 9 µL/min/mg. Also, the pIC50 in [4] is 4.91.
With `CC(C)n1nc(Cn2nc3ccccc3c2CCCCO)c2ccccc21`, the logD in [1] amounted to 4.4. The pIC50 in data set [4] was 6.66.
On to `CC(C)n1nc(Cn2nc3ccccc3c2OCCCO)c2ccccc21`, for which the logD in data set [1] is 3.5. Also, the microsomal CLint in data set [3] came to 246 µL/min/mg. Further, in data set [4], the negative-log IC50 (pIC50) is 6.00. Moreover, the Papp in data set [5] turned out to be 160 nm/s.
Turning to `CC(C)n1nc(Cn2nc3ccccc3c2OCCCCO)c2ccccc21`, the log distribution coefficient (logD) in [1] stood at 3.9. The negative logarithm of the IC50 (pIC50) in data set [4] is 7.19.
The compound `CC(C)n1nc(Cn2nc3ccccc3c2CCCO)c2ccccc21` displayed a logD in [1] of 3.8. The microsomal CLint in data set [3] is 78 µL/min/mg. For the same compound, in [4], the negative-log IC50 (pIC50) was 6.56. Besides, in [5], the Papp turned out to be 140 nm/s.
In data set [1], `CC(C)n1nc(Cn2c(=O)c3ccccc3n2CCCCO)c2ccccc21` registered a log distribution coefficient (logD) of 2.9. Moreover, the microsomal CLint in data set [3] is 462 µL/min/mg. The negative logarithm of the IC50 (pIC50) in data set [4] is 6.77. For the same compound, the Papp in [5] was found to be 320 nm/s.
The like results for `CC(C)n1nc(Cn2nc3c(c2CCCCO)CCCC3)c2ccccc21` were, in that order, 3.6, greater than 320 µL/min/mg, 6.39 and 120 nm/s.
As for `CC(C)n1nc(Cn2nc3ccccc3c2C(=O)NCCCO)c2ccccc21`, the logD in data set [1] is 2.4. Also, the pIC50 in data set [4] is 5.53.
In turn, `CC(C)n1nc(CCn2nc(CCCCO)c3ccccc32)c2cnccc21` came in with a log distribution coefficient (logD) in data set [1] of 4.4. In addition, the microsomal CLint in data set [3] was 242 µL/min/mg. Further, the pIC50 in data set [4] was 4.64. In data set [5], the Papp is 80 nm/s.
In [1], `Cc1cc(CCn2cc(-c3cccnc3)nc2Cn2c(=O)n(C3CC3)c3ccncc32)no1` had a pH-dependent lipophilicity (logD) of 1.4. Further, in data set [3], the microsomal CLint stood at 17 µL/min/mg. Moreover, in data set [4], the negative logarithm of the IC50 (pIC50) is 6.86. The Papp in [5] worked out at 40 nm/s.
With `Cc1ccc(CCn2cc(-c3cccnc3)nc2Cn2c(=O)n(C3CC3)c3ccncc32)cn1`, in [1], the logD stood at 1.5. Further, the microsomal CLint in data set [3] is 32 µL/min/mg. Also, in [4], the negative-log IC50 (pIC50) is 7.02. Also, the Papp in data set [5] was 20 nm/s.
`Cc1cc(CCn2cc(-c3cccnc3)nc2Cn2c(=O)n(C3CC3)c3ccncc32)on1` displayed a logD in data set [1] of 1.4. The same compound had a negative-log IC50 (pIC50) in [4] of 7.39. The Papp in [5] came to 30 nm/s.
`Cc1ncc(CCn2cc(-c3cccnc3)nc2Cn2c(=O)n(C3CC3)c3ccncc32)o1`: the logD in data set [1] is 0.9. Further, the microsomal CLint in data set [3] turned out to be 10 µL/min/mg. Also, the negative-log IC50 (pIC50) in [4] is 5.65.
The CLint scaled is the capacity of the preparation to metabolise the compound, expressed as a volume cleared per time. Low values mean slow turnover, high ones rapid turnover. For the compound `O=c1n(Cc2nc(-c3cccnc3)cn2CCCCO)c2cnccc2n1C1CC1`, the results for the microsomal CLint in data set [6] and in [3] were 44 µL/min/mg and less than 8 µL/min/mg, respectively. This compound also had a pH-dependent lipophilicity (logD) in [1] of 1.2. In addition, the intrinsic clearance (CLint scaled) in data set [7] was found to be 5.7 L/h/kg. Moreover, the “CLH(app)” value in data set [8] was less than 2.2 µL/min. This compound gave a pIC50 in data set [4] of 6.58. Besides, the Papp in data set [5] amounted to 40 nm/s.
As for `Cn1nccc1-c1cn(CCCCO)c(Cn2c(=O)n(C3CC3)c3ccncc32)n1`, the logD in data set [1] amounted to 0.9. The microsomal CLint in data set [3] is less than 8 µL/min/mg. For the same compound, in data set [4], the negative logarithm of the IC50 (pIC50) was less than 4.70.
The compound `O=c1n(Cc2nc(-c3ncccn3)cn2CCCCO)c2cnccc2n1C1CC1` gave a logD in [1] of 0.6. For the same compound, in [8], the “CLH(app)” value is less than 2.2 µL/min. Also, in data set [3], the microsomal CLint was less than 8 µL/min/mg. Besides, the pIC50 in [4] is 6.63. Besides, the apparent permeability coefficient (Papp) in [5] turned out to be 10 nm/s.
Turning to `O=c1n(Cc2nc(-c3ccccn3)cn2CCCCO)c2cnccc2n1C1CC1`, in [1], the log distribution coefficient (logD) stood at 1.4. For the same compound, the “CLH(app)” value in data set [8] is less than 2.2 µL/min. Besides, the microsomal CLint in data set [3] is less than 8 µL/min/mg. Moreover, the pIC50 in [4] was 6.63. In data set [5], the apparent permeability (Papp) stood at 50 nm/s.
`Cn1ccnc1-c1cn(CCCCO)c(Cn2c(=O)n(C3CC3)c3ccncc32)n1` registered a logD in [1] of 0.8. Besides, the microsomal CLint in data set [3] is less than 8 µL/min/mg. Also, the negative-log IC50 (pIC50) in data set [4] is 4.98.
In general, half-life refers to the time in which the quantity being followed falls by half. A low value points to fast loss. The Vd is the apparent volume that relates the amount in the body to the concentration in plasma or blood. Low readings indicate confinement near the circulation, high ones extensive tissue distribution. Usually bioavailability stands for dose-corrected exposure relative to a reference, in per cent. `O=c1n(Cc2nc(-c3nccs3)cn2CCCCO)c2cnccc2n1C1CC1`: the entries for the “CLH(app)” value in data set [9] and in data set [8] were 21.1 µL/min and less than 2.2 µL/min, respectively. For the same compound, the Fa in [10] was greater than 60%. Also, the dose excreted in data set [11] was 16%. Moreover, the logD in data set [1] turned out to be 1.3. Besides, the Papp in [2] and in data set [5] was 40 nm/s each time. In [12], this compound gave a half-life of 1.5 h. The compound further showed a Vd in data set [13] of 3.5 L/kg. In [14], the bioavailability came to 34%. The CLint scaled in [7] was 2.88 L/h/kg. Moreover, the microsomal CLint in [3] was less than 8 µL/min/mg. The compound also had a pIC50 in [4] of 7.24.
`O=c1n(Cc2nc(-c3ncco3)cn2CCCCO)c2cnccc2n1C1CC1` showed a logD in [1] of 0.6. Further, the microsomal CLint in data set [3] was less than 8 µL/min/mg. The compound also had a pIC50 in data set [4] of 7.02.
For `Cc1nnc(-c2cn(CCCCO)c(Cn3c(=O)n(C4CC4)c4ccncc43)n2)s1` the same measures were 0.9, less than 8 µL/min/mg and 5.29.
Regarding `COC(=O)N1CCC(n2c(=O)n(Cc3nc4ccccc4n3CCCCO)c3ccccc32)CC1`, the logD in data set [1] amounted to 3.4. Besides, the apparent permeability (Papp) in data set [2] stood at 360 nm/s. Further, in [3], the microsomal CLint worked out at 44 µL/min/mg. In [4], this compound had a negative-log IC50 (pIC50) of 9.30.
Regarding `COC(=O)N1CCC(n2c(=O)n(Cc3nc(C)c(C)n3CCCCO)c3cnccc32)CC1`, the pH-dependent lipophilicity (logD) in data set [1] is -0.5. Moreover, the apparent permeability coefficient (Papp) in data set [2] worked out at 10 nm/s. The microsomal CLint in [3] was determined as 15 µL/min/mg. In data set [4], this compound gave a pIC50 of 7.26.
In turn, `COC(=O)N1CCC(n2ccc(Cc3nc4ccccc4n3CCCCO)n2)CC1` came in with a logD in data set [1] of 2. In data set [2], the apparent permeability (Papp) came out at 60 nm/s. Besides, in [3], the microsomal CLint was found to be 110 µL/min/mg. The compound also had a negative-log IC50 (pIC50) in data set [4] of less than 4.85.
On to `CC(=O)N1CCC(Cn2nc3ccccc3c2CCCCO)CC1`, for which, in data set [1], the logD is 1.5. The Papp in [2] came out at 20 nm/s. Further, the microsomal CLint in [3] worked out at 11 µL/min/mg. Further, in data set [4], the negative logarithm of the IC50 (pIC50) is less than 4.70.
In turn, `O=c1n(Cc2nc3ccccc3n2CCCCO)c2cnccc2n1C1CC1` had a negative logarithm of the IC50 (pIC50) in [4] of 7.89.
